Data set [1] has as its system mice. Nature of the data set: Excitotoxicity assessment: PTZ-induced seizures. It is filed as in vivo, mouse. Particulars: single i.p. injection 40 mg/kg. The method, then: (§1) Drugs were dissolved in PBS and delivered by intraperitoneal injection. Pentylenetetrazole (PTZ, Sigma, St. Louis, Mo.) was used at a concentration of 5 mg/ml and a dose of 40 mg/kg. Kainate (Tocris, Ellisville, Mo.) was used at a concentration of 2 mg/ml and doses ranging from 20-40 mg/kg. For mice given PTZ, each mouse was placed in a cage and observed for 20 min after administration, with video recording. An investigator blinded to genotype analyzed the videotapes to quantify the time course and severity of seizures according to published scales (9, 10). Seizures severity scores were: 0=normal behavior; 1=immobility; 2=generalized spasm, tremble, or twitch; 3=tail extension; 4=forelimb clonus; 5=generalized clonic activity; 6=bouncing or running seizures; 7=full tonic extension; 8=death. For mice given KA, each mouse was placed in a cage and observed for 3 hours after administration. An investigator blinded to genotype quantified the time course and severity of seizures according to published scales (11); the percentage of mice attaining stage 6 (generalized tonic-clonic seizures) is presented.
A value of P<0.05 was considered significant. Error bars represent standard error of the mean. Survival data (FIG. 2E) was analyzed with Kaplan-Meier statistics and post-hoc log rank tests. Fisher's exact test was used to analyze occurrence of fatal status epilepticus after PTZ injection. Logistic regression was used to generate and compare dose-response curves for the proportion of mice seizing after KA administration (FIG. 4D). For other experiments, genotype differences were analyzed by ANOVA (repeated measures where indicated), using the Tukey test for post-hoc comparisons.

For data set [2], the system named is mice. Nature of the data set: Excitotoxicity assessment: kainate-induced seizures. As to conditions: Tau^+/+ mice, single i.p. injection, 20-40 mg/kg, age 2-5 months. It is filed as in vivo, mouse. The method, then:
as §1
A value of P<0.05 was considered significant. […] Survival data (FIG. 2E) was analyzed with Kaplan-Meier statistics and post-hoc log rank tests. […] For other experiments, genotype differences were analyzed by ANOVA (repeated measures where indicated), using the Tukey test for post-hoc comparisons.

`C1CCc2nnnn2CC1` [PTZ, Pentylenetetrazole]: the “mice suffering fatal status epilepticus” value in the data set with mice [1] (hAPP/Tau^+/+ mice, age 4-7 months) came out at 20%. The “death after PTZ” value with mice [1] (hAPP/Tau^+/− and hAPP/Tau^−/− mice) is on record as “no hAPP/Tau^+/− or hAPP/Tau^−/− mice died”. For the same molecule, in the data set with mice [1] (mice without hAPP), the “lethality of the dose” value was “non-lethal”.
Regarding `C=C(C)[C@H]1CN[C@H](C(=O)O)[C@H]1CC(=O)O` [kainate, Kainate], in the data set with mice [2], the “induction of generalized tonic-clonic seizures” value is listed as “dose-dependently induced seizures”.
